Consider 36 molecules from US20240025893A1, “PYRIMIDINE-AND NITROGEN-CONTAINING BICYCLIC COMPOUND” (Asahi Kasei Pharma Corporation, priority 2020, published 2024).

In experiment [1] the test system is LPS-stimulated TNFα production in THP-1 cells. Nature of the experiment: LPS-stimulated TNFα production inhibition test using human acute monocytic leukemia cell strain THP-1. It is filed as cell-based. Conditions: Homo sapiens, THP-1, 4 h, LPS 2.5 ng/mL, average values. As to the method: By the THP-1 assay, influence of a test compound on the TNFα production induced by LPS stimulation can be evaluated. The THP-1 cells (ATCC, Cat. TIB-202) were inoculated on a 96-well plate at a density of 1×10^5 cells/160 μL/well, a test compound was added in a volume of 20 μL, and the plate was incubated at 37° C. for 1 hour in a 5% CO2 incubator. Then, LPS in a volume of 20 μL (final concentration 2.5 ng/mL, Sigma, Cat. L2630) was added, and the plate was further incubated for 4 hours. After the incubation, the plate was centrifuged, and 100 μL of the supernatant was taken from each well, and used for evaluation of the amount of TNFα using HTRF (Cisbio, Cat. 62TNFPEB). In the measurement of the amount of TNFα, the supernatant was diluted twice with the medium, and then added to wells of a 384-well plate in a volume of 10 μL, then anti-TNFα-cryptate (5 μL), and anti-TNFα-XL665 (5 μL) were added, and the plate was left standing overnight. The fluorescence intensity ratio for the wavelengths of 620 and 665 nm (620 nm/665 nm) was measured with a microplate reader, and the amount of TNFα in the supernatant was calculated by using a calibration curve. The TNFα production suppression ratio observed with no addition of LPS was defined to be 100%, the TNFα production suppression ratio observed with no addition of the test compound was defined to be 0%, and IC50 of the test compound was calculated by using the 4-parameter logistic model of the data analysis software XLfit (ID Business Solutions Ltd.).

In experiment [2] the target is human IRAK-4 (Homo sapiens (Human), UniProt Q9NWZ3). Put plainly: Measurement of human IRAK-4 inhibitory activity (TR-FRET, peptide substrate phosphorylation, 10 μM ATP). The settings on record: 1 nM IRAK-4, 10 μM ATP, 23° C., 30 minutes; average values. Type of experiment: biochemical. As to the method:
For the measurement of the activity of the human IRAK-4 (Invitrogen, Cat. PV3362), phosphorylation of the IRAK-4 peptide substrate (biotin-KKKKRFSFKKSFKC) by the enzyme in the presence of 10 μM ATP (Sigma-Aldrich, Cat. A7699) was measured by the TR-FRET method. The enzymatic reaction was performed in a reaction buffer containing 50 mM HEPES (pH 7.2), 1 mM DTT, 0.1 mM Na3VO4, 5 mM MgCl2, 1 mM MnCl2, and 0.1% bovine serum albumin. For the measurement of the IRAK-4 inhibitory activity, a test compound was added to the reaction buffer containing 1 nM IRAK-4, 0.5 μM peptide substrate, and 10 μM ATP, and the mixture was incubated at 23° C. for 30 minutes. Then, a detection solution containing an antibody labeled with europium cryptate (0.3 μg/mL, the antibody was prepared by using the IRAK-4 peptide substrate as the antigen), streptavidin-XL665 (2 μg/mL, CisBio, Cat. 610SAXLB), 50 mM HEPES (pH 7.2), 0.1% BSA, 120 mM KF, and 66.7 mM EDTA (all the concentrations of the reagents are final concentrations) was added to terminate the reaction, and then the mixture was further incubated at 23° C. for 60 minutes. Fluorescence intensity was measured at wavelengths of 665 nm and 620 nm with a microplate reader, and the enzymatic activity was calculated as the ratio of fluorescence intensities at 665 nm and 620 nm (665 nm/620 nm).
A general note: Time-resolved FRET reads energy transfer from a long-lived donor to a nearby acceptor.

Chain of human IRAK-4 (Q9NWZ3 whole entry): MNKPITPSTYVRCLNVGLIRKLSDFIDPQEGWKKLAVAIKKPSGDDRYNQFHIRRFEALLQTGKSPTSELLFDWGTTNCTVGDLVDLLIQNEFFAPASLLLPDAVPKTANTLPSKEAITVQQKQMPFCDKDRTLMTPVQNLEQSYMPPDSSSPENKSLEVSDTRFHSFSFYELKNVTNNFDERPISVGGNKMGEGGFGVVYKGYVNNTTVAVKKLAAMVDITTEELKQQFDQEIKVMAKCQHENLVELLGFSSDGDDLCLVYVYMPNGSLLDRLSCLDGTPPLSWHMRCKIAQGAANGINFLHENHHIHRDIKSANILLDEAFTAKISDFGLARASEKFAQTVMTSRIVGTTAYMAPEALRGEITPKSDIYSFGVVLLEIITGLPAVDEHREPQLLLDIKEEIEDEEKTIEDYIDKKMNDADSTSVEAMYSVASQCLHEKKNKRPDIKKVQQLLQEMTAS

On to `O=C(Nc1nc2ccc(-c3cnc(COC4CCC4)nc3)cc2s1)C1CC1` [a-04-03], for which the IC50 in experiment [1] was found to be 355 nM; in experiment [2], 2.32 nM. On the same counts, the results for `O=C(Nc1nc2ccc(-c3cnc(CO[C@H]4CCC[C@@H]4O)nc3)cc2s1)C1CC(NC2CC2)C1` (stereo partly shown) [b-02-47] are 110 nM and 1.75 nM. Take `Cc1ccc(C(=O)N2CCN([C@H]3C[C@@H](C(=O)Nc4nc5ccc(-c6cnc(CO[C@H]7CCC[C@@H]7O)nc6)cc5s4)C3)[C@@H](C)C2)cn1` [b-04-44]: the figures for the IC50 in experiment [1] and in experiment [2] were 23 nM and 0.46 nM, respectively.

With `COc1c(-c2cnc(CO[C@H]3CCC[C@@H]3O)nc2)ccc2nc(NC(=O)C3CC(OC(C)(C)C)C3)sc12` (stereo partly shown) [c-02-07], the IC50 came out at 76 nM in experiment [1] and 1.56 nM in experiment [2]. With `O=C(Nc1nc2ccc(-c3cnc(CO[C@H]4CCC[C@@H]4O)nc3)cc2s1)C1CC(NC23CC(C(F)(F)F)(C2)C3)C1` (stereo partly shown) [b-02-60], the IC50 in experiment [1] was 158 nM; in experiment [2], 4.27 nM. Turning to `O=C(Nc1nc2ccc(-c3cnc(CO[C@H]4CCC[C@@H]4O)nc3)cc2s1)C1CC(N2C[C@@H]3C[C@H]2CO3)C1` (stereo partly shown) [b-02-31], the IC50 in experiment [1] stood at 194 nM; in experiment [2], 2.36 nM.

As for `CC1COCCCN1C1CC(C(=O)Nc2nc3ccc(-c4cnc(CO[C@H]5CCC[C@@H]5O)nc4)cc3s2)C1` (stereo partly shown) [b-02-36], the IC50 in experiment [1] is 145 nM; in experiment [2], 1.82 nM.

On to `C[C@H]1CN(C(=O)[C@@H]2CCOC2)CCN1[C@H]1C[C@@H](C(=O)Nc2nc3ccc(-c4cnc(CO[C@H]5CCC[C@@H]5O)nc4)cc3s2)C1` [b-04-22], for which the IC50 is 50 nM in experiment [1] and 1.3 nM in experiment [2]. Consider `C[C@H]1CN(C(=O)c2cncnc2)CCN1[C@H]1C[C@@H](C(=O)Nc2nc3ccc(-c4cnc(CO[C@H]5CCC[C@@H]5O)nc4)cc3s2)C1` [b-04-38], for which the half-inhibitory concentration (IC50) in experiment [1] turned out to be 87 nM; in experiment [2], 0.85 nM. Take `CN1CCN(C2CC(C(=O)Nc3nc4ccc(-c5cnc(CO[C@H]6CCC[C@@H]6O)nc5)cc4s3)C2)CC(F)(F)C1` (stereo partly shown) [b-02-41]: the IC50 stood at 160 nM in experiment [1] and 2.86 nM in experiment [2]. On the same counts, the results for `COc1c(-c2cnc(CO[C@H]3CCC[C@@H]3O)nc2)ccc2nc(NC(=O)[C@@H]3C[C@@H]3F)sc12` [c-02-08] are 196 nM and 2.44 nM. `C[C@@H]1C[C@H]1C(=O)Nc1nc2ccc(-c3cnc(CO[C@H]4CCC[C@@H]4O)nc3)cc2s1` [d-01-01, (1R,2R)—N-(6-(2-((((1S,2S)-2-Hydroxycyclopentyl)oxy)methyl)pyrimidin-5-yl)benzo[d]thiazol-2-yl)-2-methylcyclopropane-1-carboxamide]: the IC50 stood at 85 nM in experiment [1] and 1.31 nM in experiment [2].

For the molecule `COc1c(-c2cnc(CO[C@H]3CCC[C@@H]3O)nc2)ccc2nc(NC(=O)[C@H]3C[C@@H](N4CCN(C(=O)c5ccnc(C)c5)C[C@@H]4C)C3)sc12` [c-03-02, (1R,3s)-N-(6-(2-((((1S,2S)-2-Hydroxycyclopentyl)oxy)methyl)pyrimidin-5-yl)-7-methoxybenzo[d]thiazol-2-yl)-3-((S)-2-methyl-4-(2-methylisonicotinoyl)piperazin-1-yl)cyclobutane-1-carboxamide], the values for the IC50 in experiment [1] and in experiment [2] were 13 nM and 2.36 nM, respectively. On the same counts, the results for `C[C@H]1CN(C(=O)c2ccnnc2)CCN1[C@H]1C[C@@H](C(=O)Nc2nc3ccc(-c4cnc(CO[C@H]5CCC[C@@H]5O)nc4)cc3s2)C1` [b-04-28] are 72 nM and 1.58 nM. On the same counts, the results for `Cc1noc(C)c1C(=O)N1CCN([C@H]2C[C@@H](C(=O)Nc3nc4ccc(-c5cnc(CO[C@H]6CCC[C@@H]6O)nc5)cc4s3)C2)[C@@H](C)C1` [b-04-27] are 108 nM and 1.6 nM. `COCCN1CCN(C2CC(C(=O)Nc3nc4ccc(-c5cnc(CO[C@H]6CCC[C@@H]6O)nc5)cc4s3)C2)CC1` (stereo partly shown) [b-02-25]: the half-inhibitory concentration (IC50) stood at 199 nM in experiment [1] and 1.98 nM in experiment [2]. As for `CN(C)CC1CC(C(=O)Nc2nc3ccc(-c4cnc(CO[C@H]5CCC[C@@H]5O)nc4)cc3s2)C1` (stereo partly drawn) [d-05-01, 3-((Dimethylamino)methyl)-N-(6-(2-((((1S,2S)-2-hydroxycyclopentyl)oxy)methyl)pyrimidin-5-yl)benzo[d]thiazol-2-yl)cyclobutane-1-carboxamide], the IC50 in experiment [1] worked out at 182 nM; in experiment [2], 1.51 nM. `CCCOCc1ncc(-c2ccn3nc(NC(=O)[C@H]4C[C@@H](N5CCN(C(=O)c6ccc(Cl)cn6)C[C@@H]5C)C4)cc3c2)cn1` [e-02-22]: the results for the IC50 in experiment [1] and in experiment [2] were 106 nM and 1.29 nM, respectively.

On to `O=C(Nc1nc2ccc(-c3cnc(CO[C@H]4CCC[C@@H]4O)nc3)cc2s1)C1CC(N2CC[C@H](OC(F)F)C2)C1` (stereo partly shown) [b-02-51], for which the IC50 came out at 146 nM in experiment [1] and 2.17 nM in experiment [2]. On the same counts, the results for `CC(C)(C)OC(=O)N1CC2(CC(C(=O)Nc3nc4ccc(-c5cnc(CO[C@H]6CCC[C@@H]6O)nc5)cc4s3)C2)C1` [d-01-04] are 178 nM and 6.39 nM. In the case of `O=C(Nc1nc2ccc(-c3cnc(CO[C@H]4CCC[C@@H]4O)nc3)cc2s1)[C@H]1C[C@@H](OCc2ccncc2)C1` [d-04-05], the IC50 in experiment [1] came out at 145 nM; in experiment [2], 2.05 nM.

Turning to `C[C@H]1CN(C(=O)c2nccs2)CCN1[C@H]1C[C@@H](C(=O)Nc2nc3ccc(-c4cnc(CO[C@H]5CCC[C@@H]5O)nc4)cc3s2)C1` [b-04-31], the IC50 in experiment [1] worked out at 55 nM; in experiment [2] it was 1.73 nM. As to `O=C(Nc1nc2ccc(-c3cnc(CO[C@H]4CCC[C@@H]4O)nc3)cc2s1)C1CC(N2CCCC3(COC3)C2)C1` (stereo partly shown) [b-02-75], the IC50 in experiment [1] was 186 nM. The same measure, in the same setting: under `COCC(=O)N1CCC2(CC1)CC(C(=O)Nc1nc3ccc(-c4cnc(CO[C@H]5CCC[C@@H]5O)nc4)cc3s1)C2` [d-03-02] stands 111 nM; under `COc1c(-c2cnc(CO[C@H]3CCC[C@@H]3O)nc2)ccc2nc(NC(=O)[C@H]3C[C@H]3C)sc12` [c-02-03], 229 nM.

`O=C(Nc1nc2ccc(-c3cnc(CO[C@H]4CCC[C@@H]4O)nc3)cc2s1)[C@H]1C[C@@H](OCC2CC2)C1` [d-04-04] came in with a 50% inhibitory concentration (IC50) in experiment [1] of 169 nM. In experiment [1], `CC1(F)CN(C2CC(C(=O)Nc3nc4ccc(-c5cnc(CO[C@H]6CCC[C@@H]6O)nc5)cc4s3)C2)C1` (stereo partly shown) [b-02-45] registered an IC50 of 200 nM. Same read-out and setting: then `C[C@H]1CN(S(C)(=O)=O)CCN1[C@H]1C[C@@H](C(=O)Nc2nc3ccc(-c4cnc(CO[C@H]5CCC[C@@H]5O)nc4)cc3s2)C1` [b-05-08], with 81 nM; and `CC(C)(C)OC1CC(C(=O)Nc2cc3cc(-c4cnc(CO[C@H]5CCC[C@@H]5O)nc4)ccn3n2)C1` (stereo partly drawn) [e-03-01, 3-(tert-Butoxy)-N-(5-(2-((((1S,2S)-2-hydroxycyclopentyl)oxy)methyl)pyrimidin-5-yl)pyrazolo[1,5-a]pyridin-2-yl)cyclobutane-1-carboxamide], with 168 nM; and `COc1c(-c2cnc(CO[C@H]3CCC[C@@H]3O)nc2)ccc2nc(NC(=O)[C@H]3C[C@@H]3C)sc12` [c-02-02], with 186 nM.

In experiment [1], `CCNC(=O)N1CCN([C@H]2C[C@@H](C(=O)Nc3nc4ccc(-c5cnc(CO[C@H]6CCC[C@@H]6O)nc5)cc4s3)C2)[C@@H](C)C1` [b-06-01] registered a 50% inhibitory concentration (IC50) of 93 nM.

In the case of `O=C(Nc1nc2ccc(-c3cnc(CO[C@H]4CCC[C@@H]4O)nc3)cc2s1)C1CC2(CCN(C(=O)c3ccccc3)CC2)C1` [d-03-04], in experiment [1], the IC50 was determined as 194 nM. `O=C(Nc1nc2ccc(-c3cnc(CO[C@H]4CCC[C@@H]4O)nc3)cc2s1)C1CC(NC2CC(F)(F)C2)C1` (stereo partly shown) [b-02-64] had an IC50 in experiment [1] of 164 nM. As to `O=C(Nc1nc2ccc(-c3cnc(CO[C@H]4CCC[C@@H]4O)nc3)cc2s1)C1CC2(CCN(C(=O)C3CC3)CC2)C1` [d-03-03], in experiment [1], the 50% inhibitory concentration (IC50) was 87 nM. Take `CO[C@H]1C[C@@H](C(=O)Nc2nc3ccc(-c4cnc(CO[C@H]5CCC[C@@H]5O)nc4)cc3s2)C1` [a-01-06]: in experiment [1], the IC50 is 170 nM. Same read-out and setting: then `CN(C1CC(C(=O)Nc2nc3ccc(-c4cnc(CO[C@H]5CCC[C@@H]5O)nc4)cc3s2)C1)C1(C#N)CC1` (stereo partly shown) [b-02-73], with 113 nM.

As usually defined, the IC50 is the concentration that inhibits the measured activity by half.
